Assays:
Test in all cases: relative viability (nuclei count vs DMSO), 5 days (fraction); higher = more cells survive
201T = tested on: 201T
Summary of the method: (§1)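 Five library-drug doses in √10 steps were combined with a fixed anchor-drug dose, or a single drug was given alone, by pin tool to lung cancer cell lines in 1536-well plates the day after seeding. Nuclei were stained and counted after 5 days. Relative viability is the nuclei count in treated wells over that in vehicle wells, taken as the median of duplicate plates.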

BEN = tested on: BEN
Summary of the method: as §1

EMC-BAC-2 = tested on: EMC-BAC-2
Summary of the method: as §1

HARA = tested on: HARA
Summary of the method: as §1

HCC-44 = tested on: HCC-44
Summary of the method: as §1

LCLC-103H = tested on: LCLC-103H
Summary of the method: as §1

LOU-NH91 = tested on: LOU-NH91
Summary of the method: as §1

NCI-H1395 = tested on: NCI-H1395
Summary of the method: as §1

NCI-H1666 = tested on: NCI-H1666
Summary of the method: as §1

NCI-H1993 = tested on: NCI-H1993
Summary of the method: as §1

NCI-H2009 = tested on: NCI-H2009
Summary of the method: as §1

NCI-H2023 = tested on: NCI-H2023
Summary of the method: as §1

## COc1cc(N2CCC(C(N)=O)CC2)ccc1Nc1nc(N)c(Cl)c(Nc2ccccc2S(=O)(=O)C(C)C)n1 [HG-5-88-01] + CCNC(=O)c1noc(-c2cc(C(C)C)c(O)cc2O)c1-c1ccc(CN2CCOCC2)cc1 [Luminespib] (partner 0.01 µM)
201T; first compound 0.04 µM
  relative viability: 1.01
201T; first compound 0.1265 µM
  relative viability: 1.04
201T; first compound 0.4 µM
  relative viability: 1.08
201T; first compound 1.265 µM
  relative viability: 1.03
201T; first compound 4 µM
  relative viability: 1.11
BEN; first compound 0.04 µM
  relative viability: 0.337
BEN; first compound 0.1265 µM
  relative viability: 0.412
BEN; first compound 0.4 µM
  relative viability: 0.43
BEN; first compound 1.265 µM
  relative viability: 0.465
BEN; first compound 4 µM
  relative viability: 0.234
EMC-BAC-2; first compound 0.04 µM
  relative viability: 1.09
EMC-BAC-2; first compound 0.1265 µM
  relative viability: 1.25
EMC-BAC-2; first compound 0.4 µM
  relative viability: 1.14
EMC-BAC-2; first compound 1.265 µM
  relative viability: 1.12
EMC-BAC-2; first compound 4 µM
  relative viability: 0.892
HARA; first compound 0.04 µM
  relative viability: 0.777
HARA; first compound 0.1265 µM
  relative viability: 0.813
HARA; first compound 0.4 µM
  relative viability: 0.565
HARA; first compound 1.265 µM
  relative viability: 0.5
HARA; first compound 4 µM
  relative viability: 0.421
HCC-44; first compound 0.04 µM
  relative viability: 1.01
HCC-44; first compound 0.1265 µM
  relative viability: 0.988
HCC-44; first compound 0.4 µM
  relative viability: 0.915
HCC-44; first compound 1.265 µM
  relative viability: 0.366
HCC-44; first compound 4 µM
  relative viability: 0.783
LCLC-103H; first compound 0.04 µM
  relative viability: 1.08
LCLC-103H; first compound 0.1265 µM
  relative viability: 1.01
LCLC-103H; first compound 0.4 µM
  relative viability: 0.888
LCLC-103H; first compound 1.265 µM
  relative viability: 0.894
LCLC-103H; first compound 4 µM
  relative viability: 0.879
LOU-NH91; first compound 0.04 µM
  relative viability: 0.337
LOU-NH91; first compound 0.1265 µM
  relative viability: 0.338
LOU-NH91; first compound 0.4 µM
  relative viability: 0.331
LOU-NH91; first compound 1.265 µM
  relative viability: 0.35
LOU-NH91; first compound 4 µM
  relative viability: 0.356
NCI-H1395; first compound 0.04 µM
  relative viability: 0.723
NCI-H1395; first compound 0.1265 µM
  relative viability: 0.611
NCI-H1395; first compound 0.4 µM
  relative viability: 0.669
NCI-H1395; first compound 1.265 µM
  relative viability: 0.532
NCI-H1395; first compound 4 µM
  relative viability: 0.989
NCI-H1666; first compound 0.04 µM
  relative viability: 1.05
NCI-H1666; first compound 0.1265 µM
  relative viability: 0.991
NCI-H1666; first compound 0.4 µM
  relative viability: 0.948
NCI-H1666; first compound 1.265 µM
  relative viability: 0.925
NCI-H1666; first compound 4 µM
  relative viability: 0.777
NCI-H1993; first compound 0.04 µM
  relative viability: 0.957
NCI-H1993; first compound 0.1265 µM
  relative viability: 0.826
NCI-H1993; first compound 0.4 µM
  relative viability: 0.83
NCI-H1993; first compound 1.265 µM
  relative viability: 0.648
NCI-H1993; first compound 4 µM
  relative viability: 0.578
NCI-H2009; first compound 0.04 µM
  relative viability: 1.11
NCI-H2009; first compound 0.1265 µM
  relative viability: 1.06
NCI-H2009; first compound 0.4 µM
  relative viability: 0.954
NCI-H2009; first compound 1.265 µM
  relative viability: 0.994
NCI-H2009; first compound 4 µM
  relative viability: 1.12
NCI-H2023; first compound 0.04 µM
  relative viability: 0.397
NCI-H2023; first compound 0.1265 µM
  relative viability: 0.673
NCI-H2023; first compound 0.4 µM
  relative viability: 0.671
NCI-H2023; first compound 1.265 µM
  relative viability: 0.438
NCI-H2023; first compound 4 µM
  relative viability: 0.267

Reference: the supplement of paper PMC10307832
